{"source": "patent US10080789B2", "about": "“Programming of cells for tolerogenic therapies” (President and Fellows of Harvard College, priority 2009, dated 2018)", "key": {"[1]": {"test_system": "CD11c(+)CD86(+) DCs", "experiment": "In vivo DC recruitment to subcutaneously implanted GM-CSF loaded polymers", "design": "species or system C57BL/6J mice", "conditions": "polymers loaded with 3 μg GM-CSF", "source_text": "(§1) Numbers in FACS plots indicate the percentage of the cell population positive for both markers. FIG. 4D is the percentage of total cells that were positive for the DC markers CD11c and CD86, in blank (-∘-) and GM-CSF (-●-) loaded polymers as a function of time post implantation. […] Scale bar—500 μm. Values in FIGS. 4A, 4D, 4E, and 4F represent mean and standard deviation (n=4 or 5); *P<0.05; **P<0.01.\n(§2) The polymer delivery vehicle presents GM-CSF in a defined spatiotemporal manner in vivo, following introduction into the tissue of interest. […]\nGels with various combinations of factors are injected into gingival of mice. […] To analyze DC recruitment, gels and surrounding tissue are excised at various time-points and the tissue digested into single cell suspensions using a collagenase solution (Worthingtion, 250 U/ml) that was agitated at 37° C. for 45 min The cell suspensions are then poured through a […] cell strainer to isolate cells from gel particles and the cells are pelleted and washed with cold PBS and counted using a Z2 coulter counter (Beckman Coulter). […] Cells are gated according to positive labels using isotype controls, and the percentage of cells staining positive for each surface antigen is recorded."}, "[2]": {"test_system": "mononuclear cells isolated from the bone marrow (BM) of C57BL/6 mice", "experiment": "In vitro induction of DC from bone marrow mononuclear cells, phenotype and cytokine production", "assay_type": "cell-based", "conditions": "for CD11c+/CD86+ in total BM cells: 7 day incubation of BM cells with GM-CSF with or without the named factor; for expression of the proinflammatory cytokines IL-6 and IL-12 by induced DC: GM-CSF in presence of named factor, bacterial stimulation, vs DC induced by GM-CSF alone", "source_text": "FIGS. 5F (Table 1) and 5A-E reflect the potency of a material system that delivers TSLP and GM-CSF to PD lesion in induction of tolerogenic DC. […] The surface phenotypes of CD11c+DC in the BM culture were monitored by flow cytometry and the proportionality of each phenotype is expressed as a percent (%) of the total mononuclear cells (MNC) (FIG. 5F, Table 1).\nThe present invention provides for a material-based local application of GM-CSF with appropriate DC influencing factors that leads to tolerogenic DCs (tDCs), and subsequent enrichment of iTreg cells. Candidate biofactors include thymic stromal lymphopoietin (TSLP), vasoactive intestinal peptide (VIP), and transforming growth factor-beta (TGF-β). Screening is based on the induced DC's anti-inflammatory properties. […] Overall, these observations that the combination of GM-CSF with TSLP efficiently induces DC with an anti-inflammatory phenotype."}, "[3]": {"experiment": "Release profile of GM-CSF from polymer delivery vehicle", "assay_type": "physicochemical", "conditions": "within the first 5 days; then slow sustained release over next 10 days", "source_text": "as §1, §2\nTo determine the efficiency of GM-CSF, TSLP, and pDNA incorporation and the kinetics of release, ^125I-labeled factors (Perkin Elmer) are utilized as a tracer, and gels and placed in Phosphate Buffer Solution (PBS) (37° C.). At various time points, the PBS release media is collected and amount of ^125I-factor released from the scaffolds is determined at each time point using a gamma counter and normalizing to the total ^125I-factor incorporated into the gels. To asses the retention of GM-CSF bioactivity, loaded gels are placed in the top wells of 6.5 mm transwell dishes (Costar, Cambridge, Mass.) with a pore size of 3 μm and the proliferation of JAWS II cells (DC cell line) cultured in the bottom wells is evaluated at various time points using cell counts from a hemacytometer. […]"}, "[4]": {"test_system": "JAWSII DCs", "experiment": "JAWSII DC recruitment, proliferation, emigration and activation in vitro (transwell)", "assay_type": "cell-based", "procedure": "FIGS. 3A-D show data related to the concentration dependent effects of GM-CSF on DC proliferation, recruitment, activation and emigration in vitro. […] Migration counts measured at 12 hours. FIG. 3B is the effects of GM-CSF concentration on the proliferation of JAWSII DCs. 0 (white bar), 50 (grey bar), and 500 ng/ml (black bar) of GM-CSF. […] Migration counts taken at 6 hours. FIG. 3D are representative photomicrographs of TNF-α and LPS stimulated JAWSII DCs cultured in 5-50 or 500 ng/ml GM-CSF and stained for the activation markers MHCII and CCR7. Scale bar in FIG. 3D—20 μm. Values in FIGS. 3A-C represent mean and standard deviation (n=4); *P<0.05; **P<0.01\nMigration assays are performed with 6.5 mm transwell dishes (Costar, Cambridge, Mass.) with a pore size of 5 μm. The effects of GM-CSF and TSLP, (Invivogen, San Diego, Calif.) on the migration of DCs are assessed by placing recombinant murine GM-CSF and TSLP in the bottom wells and 5×10^5 DCs in the top wells. To assess the effects of GM-CSF and TSLP on DC activation, cells are cultured with bacterial stimulation (fixed Aa, fixed P. gingivalis, Aa-LPS or Pg-LPS along) with various concentrations of TSLP and GM-CSF for 24 hours and then the cells are washed and fixed in 10% formalin. The cells are prepared for fluorescence immunohistochemistry as per below, and examined using fluorescent microscopy (Olympus, Center Valley, Pa.). Cells are also analyzed by FACS, and gated according to positive stains using isotype controls, and the percentage of cells staining positive for each surface antigen will be recorded."}, "[5]": {"biological_target": "T1, T cell-specific potassium channel Kv1.3 (Rattus norvegicus, UniProt P15384)", "T1 construct": "endogenous in cells", "T1 sequence (P15384 whole entry)": "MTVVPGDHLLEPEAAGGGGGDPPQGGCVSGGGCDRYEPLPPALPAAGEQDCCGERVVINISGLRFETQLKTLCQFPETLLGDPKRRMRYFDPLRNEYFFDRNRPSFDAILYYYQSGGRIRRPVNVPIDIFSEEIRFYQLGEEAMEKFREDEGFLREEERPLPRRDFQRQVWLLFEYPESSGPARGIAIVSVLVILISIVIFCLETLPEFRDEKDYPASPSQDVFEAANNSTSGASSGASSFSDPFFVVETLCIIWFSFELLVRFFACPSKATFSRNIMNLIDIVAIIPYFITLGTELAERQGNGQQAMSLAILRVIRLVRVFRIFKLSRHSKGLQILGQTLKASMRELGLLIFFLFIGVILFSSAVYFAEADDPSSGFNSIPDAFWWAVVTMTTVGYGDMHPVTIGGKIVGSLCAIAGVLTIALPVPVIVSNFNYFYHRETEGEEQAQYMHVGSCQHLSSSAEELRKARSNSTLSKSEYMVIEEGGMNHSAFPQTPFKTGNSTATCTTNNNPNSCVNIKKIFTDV", "conditions": "cited from earlier work"}}, "note": "Where no end group is shown, it is not given here."}
{"substance": "granulocyte-macrophage colony stimulating factor [GM-CSF]", "values": [{"measurement": "total cellular infiltration at the site", "setting": "[1]; dorsal subcutaneous, day-14, vs control", "value": "significantly enhanced"}, {"measurement": "total cell number and percentage of infiltrating cells that were CD11c(+)CD86(+) DCs", "setting": "[1]; subcutaneous", "value": "increased"}, {"measurement": "CD11c+/CD86+ in total BM cells", "setting": "[2]", "value": 14.7, "unit": "%"}, {"measurement": "bioactive GM-CSF load released", "setting": "[3]", "value": "approximately 60%"}, {"measurement": "DC recruitment and proliferation", "setting": "[4]; JAWSII DCs in vitro", "value": "enhanced DC recruitment and proliferation in a dose-dependent manner"}, {"measurement": "DC activation via TNF-α and LPS stimulation (MHCII and CCR7 expression)", "setting": "[4]; high concentrations of GM-CSF", "value": "suppressed DC activation"}, {"measurement": "GM-CSF concentrations that inhibited DC migration toward the LN-derived chemokine CCL19", "setting": "[4]; transwell, 300 ng/ml CCL19, counts at 6 hours", "value": "> 100", "unit": "ng/mL"}]}
{"substance": "Kaliotoxin", "values": [{"measurement": "RANKL production by activated rat T cells", "setting": "[5]", "value": "inhibits"}]}
{"substance": "vasoactive intestinal peptide (HSDAVFTDNYTRLRKQMAVKKYLNSILN; ends and bridges not checked; UniProt P01282 125-152, looked up) [VIP, candidate biofactor tested with GM-CSF]", "values": [{"measurement": "IL-10 production by induced DC", "setting": "[2]; BM cells with GM-CSF and named factor (100 ng/ml), 7 days, bacterial challenge", "value": "did not up-regulate"}, {"measurement": "expression of the proinflammatory cytokines IL-6 and IL-12 by induced DC", "setting": "[2]", "value": "diminished expression"}]}
{"substance": "transforming growth factor-beta [TGF-b]", "values": [{"measurement": "CD11c+/CD86+ in total BM cells", "setting": "[2]", "value": 10.5, "unit": "%"}, {"measurement": "expression of the proinflammatory cytokines IL-6 and IL-12 by induced DC", "setting": "[2]", "value": "diminished expression"}]}
{"substance": "thymic stromal lymphopoietin [TSLP]", "values": [{"measurement": "expression of the proinflammatory cytokines IL-6 and IL-12 by induced DC", "setting": "[2]", "value": "diminished expression"}]}
